# Biological target: T1, mTOR (Homo sapiens, UniProt P42345)
# T1 construct: purchased Invitrogen Corporation (Carlsbad/CA, USA) PV4753
# Assay: Biochemical assay for m-TOR by TR-FRET
# Details: 8 μM ATP, 400 nM GFP-4EBP1, 0.5 nM mTOR
# Method in brief: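 TR-FRET read-out: Tb-labelled anti-p4EBP1 pThr46 antibody (0.5 nM), added in EDTA to stop the reaction, detects phosphorylated GFP-4EBP1 after 15 min. Kinase step used 0.5 nM mTOR, 400 nM substrate, 8 μM ATP, MnCl2-containing HEPES buffer pH 7.5, room temperature.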
# T1 sequence (P42345 1360-2549 limits assumed): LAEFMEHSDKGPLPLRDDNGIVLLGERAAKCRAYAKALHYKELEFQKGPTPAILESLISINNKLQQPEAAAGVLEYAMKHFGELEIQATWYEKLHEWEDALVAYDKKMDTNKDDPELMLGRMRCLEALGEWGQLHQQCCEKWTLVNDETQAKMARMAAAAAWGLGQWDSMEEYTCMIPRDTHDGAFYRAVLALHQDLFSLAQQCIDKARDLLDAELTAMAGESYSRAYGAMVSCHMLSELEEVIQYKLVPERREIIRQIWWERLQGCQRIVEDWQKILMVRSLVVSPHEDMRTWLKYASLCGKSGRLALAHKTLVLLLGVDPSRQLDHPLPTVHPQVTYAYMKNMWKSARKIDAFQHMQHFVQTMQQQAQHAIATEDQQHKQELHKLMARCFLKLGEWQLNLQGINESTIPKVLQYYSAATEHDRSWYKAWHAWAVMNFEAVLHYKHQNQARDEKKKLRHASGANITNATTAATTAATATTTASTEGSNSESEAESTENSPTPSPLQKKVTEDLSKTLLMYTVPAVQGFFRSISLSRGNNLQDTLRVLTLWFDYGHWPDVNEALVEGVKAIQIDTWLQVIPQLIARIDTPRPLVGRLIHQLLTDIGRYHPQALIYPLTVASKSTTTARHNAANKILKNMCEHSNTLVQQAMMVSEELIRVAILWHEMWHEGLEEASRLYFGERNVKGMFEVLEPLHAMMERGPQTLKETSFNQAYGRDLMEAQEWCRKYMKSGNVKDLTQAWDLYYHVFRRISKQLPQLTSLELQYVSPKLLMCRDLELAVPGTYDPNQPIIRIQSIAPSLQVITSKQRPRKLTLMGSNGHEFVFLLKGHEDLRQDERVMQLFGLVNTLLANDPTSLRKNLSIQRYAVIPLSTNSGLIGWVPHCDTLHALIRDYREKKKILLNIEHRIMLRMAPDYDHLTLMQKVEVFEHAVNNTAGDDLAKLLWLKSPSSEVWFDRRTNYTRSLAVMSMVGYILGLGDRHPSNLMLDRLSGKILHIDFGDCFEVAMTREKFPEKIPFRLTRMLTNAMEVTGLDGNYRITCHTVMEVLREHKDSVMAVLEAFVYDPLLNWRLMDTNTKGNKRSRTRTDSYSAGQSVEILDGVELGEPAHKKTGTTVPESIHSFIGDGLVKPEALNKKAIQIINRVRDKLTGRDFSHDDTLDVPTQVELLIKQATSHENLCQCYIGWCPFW
row,Compound,IC50 [nM]
1,"Cc1nn(C)cc1-n1c(=O)n(C)c2cnc3ccc(-c4cncc(N(C)C5CCC5)c4)cc3c21 [Example 174, 8-[5-(Cyclobutyl-methyl-amino)-pyridin-3-yl]-1-(1,3-dimethyl-1H-pyrazol-4-yl)-3-methyl-1,3-dihydro-imidazo[4,5-c]quinolin-2-one]",7
2,"CCNC(=O)c1cc(-c2ccc3ncc4c(c3c2)n(-c2cn(C(C)C)nc2C)c(=O)n4C)cnc1N [Example 227, 2-Amino-N-ethyl-5-[1-(1-isopropyl-3-methyl-1H-pyrazol-4-yl)-3-methyl-2-oxo-2,3-dihydro-1H-imidazo[4,5-c]quinolin-8-yl]-nicotinamide]",161
3,"Cc1nn(C)cc1-n1c(=O)n(C)c2cnc3ccc(-c4cccc(OC(C)C)c4)cc3c21 [Example 82, 1-(1,3-Dimethyl-1H-pyrazol-4-yl)-8-(3-isopropoxy-phenyl)-3-methyl-1,3-dihydro-imidazo[4,5-c]quinolin-2-one]",27
4,"CCN(CC)c1cncc(-c2ccc3ncc4c(c3c2)n(-c2cn(C)nc2C)c(=O)n4C)c1 [Example 95, 8-(5-Diethylamino-pyridin-3-yl)-1-(1,3-dimethyl-1H-pyrazol-4-yl)-3-methyl-1,3-dihydro-imidazo[4,5-c]quinolin-2-one]",20
5,"Cc1nn(C)cc1-n1c(=O)n(C)c2cnc3ccc(-c4cnc(N)c(C(F)(F)F)c4)cc3c21 [Example 25.1, 8-(6-Amino-5-trifluoromethyl-pyridin-3-yl)-1-(1,3-dimethyl-1H-pyrazol-4-yl)-3-methyl-1,3-dihydro-imidazo[4,5-c]quinolin-2-one]",9
6,"CCNc1ncc(-c2ccc3ncc4c(c3c2)n(-c2cn(C)nc2C)c(=O)n4C)cc1C(F)(F)F [Example 145.2, 1-(1,3-Dimethyl-1H-pyrazol-4-yl)-8-(6-ethylamino-5-trifluoromethyl-pyridin-3-yl)-3-methyl-1,3-dihydro-imidazo[4,5-c]quinolin-2-one]",16
7,"COc1ccc(-c2ccc3ncc4c(c3c2)n(-c2cn(C)nc2C)c(=S)n4C)cc1OC [Example 128.2, 8-(3,4-Dimethoxy-phenyl)-1-(1,3-dimethyl-1H-pyrazol-4-yl)-3-methyl-1,3-dihydro-imidazo[4,5-c]quinoline-2-thione]",12
8,"Cc1cc(-n2c(=O)n(C)c3cnc4ccc(-c5cnc(N)c(C(F)(F)F)c5)cc4c32)n(C)n1 [Example 25.6, 8-(6-Amino-5-trifluoromethyl-pyridin-3-yl)-1-(2,5-dimethyl-2H-pyrazol-3-yl)-3-methyl-1,3-dihydro-imidazo[4,5-c]quinolin-2-one]",82
9,"COc1ncc(-c2ccc3ncc4c(c3c2)n(-c2cc(C)nn2C)c(=O)n4C)c(OC)n1 [Example 234.4, 8-(2,4-Dimethoxy-pyrimidin-5-yl)-1-(2,5-dimethyl-2H-pyrazol-3-yl)-3-methyl-1,3-dihydro-imidazo[4,5-c]quinolin-2-one]",187
10,"Cc1nn(C)cc1-n1c(=O)n(C)c2cnc3ccc(-c4cncc(OC5CCC5)c4)cc3c21 [Example 60.1, 8-(5-Cyclobutoxy-pyridin-3-yl)-1-(1,3-dimethyl-1H-pyrazol-4-yl)-3-methyl-1,3-dihydro-imidazo[4,5-c]quinolin-2-one]",5
11,"CCn1cc(-n2c(=O)n(C)c3cnc4ccc(-c5cnc(N)c(Cl)c5)cc4c32)c(C)n1 [Example 148.3, 8-(6-Amino-5-chloro-pyridin-3-yl)-1-(1-ethyl-3-methyl-1H-pyrazol-4-yl)-3-methyl-1,3-dihydro-imidazo[4,5-c]quinolin-2-one]",12
12,"Cc1nn(C(C)C)cc1-n1c(=O)n(C)c2cnc3ccc(-c4cnc(Cl)c(N)c4)cc3c21 [Example 152.1, 8-(5-Amino-6-chloro-pyridin-3-yl)-1-(1-isopropyl-3-methyl-1H-pyrazol-4-yl)-3-methyl-1,3-dihydro-imidazo[4,5-c]quinolin-2-one]",13
13,"CNc1ccc(-c2ccc3ncc4c(c3c2)n(-c2cn(C(C)C)nc2C)c(=S)n4C)cn1 [Example 241, 1-(1-isopropyl-3-methyl-1H-pyrazol-4-yl)-3-methyl-8-(6-(methylamino)pyridin-3-yl)-1H-imidazo[4,5-c]quinoline-2(3H)-thione]",79
14,"Cc1nn(C(C)C)cc1-n1c(=O)n(C)c2cnc3ccc(-c4cnc5c(c4)COC(=O)N5C)cc3c21 [Example 170, 1-(1-Isopropyl-3-methyl-1H-pyrazol-4-yl)-3-methyl-8-(1-methyl-2-oxo-1,4-dihydro-2H-pyrido[2,3-d][1,3]oxazin-6-yl)-1,3-dihydro-imidazo[4,5-c]quinolin-2-one]",1820
15,"Cc1cc(-n2c(=O)n(C)c3cnc4ccc(-c5cnc(F)c(N)c5)cc4c32)n(C)n1 [Example 149.3, 8-(5-Amino-6-fluoro-pyridin-3-yl)-1-(2,5-dimethyl-2H-pyrazol-3-yl)-3-methyl-1,3-dihydro-imidazo[4,5-c]quinolin-2-one]",210
16,"Cc1nn(C)c(C)c1-n1c(=O)n(C)c2cnc3ccc(-c4cnc(Cl)c(N)c4)cc3c21 [Example 152.3, 8-(5-Amino-6-chloro-pyridin-3-yl)-3-methyl-1-(1,3,5-trimethyl-1H-pyrazol-4-yl)-1,3-dihydro-imidazo[4,5-c]quinolin-2-one]",189

# The next lines start with the values.
row,IC50 [nM],Compound
1,69,"Cc1nn(C)cc1-n1c(=S)n(C)c2cnc3ccc(-c4cccnc4)cc3c21 [Example 128.1, 1-(1,3-Dimethyl-1H-pyrazol-4-yl)-3-methyl-8-pyridin-3-yl-1,3-dihydro-imidazo[4,5-c]quinoline-2-thione]"
2,32,"CCn1cc(-n2c(=O)n(C)c3cnc4ccc(-c5cncc(C(C)(C)C#N)c5)cc4c32)c(C)n1 [Example 220.2, 2-{5-[1-(1-Ethyl-3-methyl-1H-pyrazol-4-yl)-3-methyl-2-oxo-2,3-dihydro-1H-imidazo[4,5-c]quinolin-8-yl]-pyridin-3-yl}-2-methyl-propionitrile]"
3,< 3,"CNc1ncc(-c2ccc3ncc4c(c3c2)n(-c2cn(C(C)C)nc2C)c(=O)n4C)cc1C(F)(F)F [Example 144.2, 1-(1-Isopropyl-3-methyl-1H-pyrazol-4-yl)-3-methyl-8-(6-methylamino-5-trifluoromethyl-pyridin-3-yl)-1,3-dihydro-imidazo[4,5-c]quinolin-2-one]"
4,5,"CN(C)c1ncc(-c2ccc3ncc4c(c3c2)n(-c2cn(C)nc2Cl)c(=O)n4C)cn1 [Example 6.3, 1-(3-Chloro-1-methyl-1H-pyrazol-4-yl)-8-(2-dimethylamino-pyrimidin-5-yl)-3-methyl-1,3-dihydro-imidazo[4,5-c]quinolin-2-one]"
5,281,"Cc1nn(C)cc1-n1c(=O)n(C)c2cnc3ccc(-c4cccc(NS(C)(=O)=O)c4)cc3c21 [Example 47, N-{3-[1-(1,3-dimethyl-1H-pyrazol-4-yl)-3-methyl-2-oxo-2,3-dihydro-1H-imidazo[4,5-c]quinolin-8-yl]-phenyl}-methanesulfonamide]"
6,7,"Cc1nn(C)cc1-n1c(=O)n(C)c2cnc3ccc(-c4ccc(N5CCCC5)nc4)cc3c21 [Example 97, 1-(1,3-Dimethyl-1H-pyrazol-4-yl)-3-methyl-8-(6-pyrrolidin-1-yl-pyridin-3-yl)-1,3-dihydro-imidazo[4,5-c]quinolin-2-one]"
7,3,"CC(C)Oc1cncc(-c2ccc3ncc4c(c3c2)n(-c2cn(C)nc2Cl)c(=O)n4C)c1 [Example 58.2, 1-(3-Chloro-1-methyl-1H-pyrazol-4-yl)-8-(5-isopropoxy-pyridin-3-yl)-3-methyl-1,3-dihydro-imidazo[4,5-c]quinolin-2-one]"
8,< 3,"CNc1ncc(-c2ccc3ncc4c(c3c2)n(-c2cn(C)nc2Cl)c(=O)n4C)cc1C [Example 119, 1-(3-Chloro-1-methyl-1H-pyrazol-4-yl)-3-methyl-8-(5-methyl-6-methylamino-pyridin-3-yl)-1,3-dihydro-imidazo[4,5-c]quinolin-2-one]"
9,73,"[2H]C([2H])([2H])OCc1ncc(-c2ccc3ncc4c(c3c2)n(-c2cn(C)nc2C)c(=O)n4C)cc1OCC [Example 198, 1-(1,3-Dimethyl-1H-pyrazol-4-yl)-8-(5-ethoxy-6-trideuteromethoxymethyl-pyridin-3-yl)-3-methyl-1,3-dihydro-imidazo[4,5-c]quinolin-2-one]"
10,19,"Cc1cc(-n2c(=O)n(C)c3cnc4ccc(-c5cnc(C)c(O)c5)cc4c32)n(C)n1 [Example 185.2, 1-(2,5-Dimethyl-2H-pyrazol-3-yl)-8-(5-hydroxy-6-methyl-pyridin-3-yl)-3-methyl-1,3-dihydro-imidazo[4,5-c]quinolin-2-one]"
11,55,"CCOCc1cc(-c2ccc3ncc4c(c3c2)n(-c2cn(C(C)C)nc2C)c(=O)n4C)cnc1N [Example 166.3, 8-(6-Amino-5-ethoxymethyl-pyridin-3-yl)-1-(1-isopropyl-3-methyl-1H-pyrazol-4-yl)-3-methyl-1,3-dihydro-imidazo[4,5-c]quinolin-2-one]"
12,16,"CCOCc1cc(-c2ccc3ncc4c(c3c2)n(-c2cn(C)nc2Cl)c(=O)n4C)cnc1N [Example 166.4, 8-(6-Amino-5-ethoxymethyl-pyridin-3-yl)-1-(3-chloro-1-methyl-1H-pyrazol-4-yl)-3-methyl-1,3-dihydro-imidazo[4,5-c]quinolin-2-one]"

# Biological target: T2, PI3K gamma (Homo sapiens, UniProt P48736)
# T2 construct: His tag (C); made in house; host or cells: baculovirus (pVL1393); Tn5 or TiniPro insect cells; construct from Roger Williams lab, MRC LMB
# Assay: PI3K gamma kinase assay (Kinase-Glo luminescence)
# Type: biochemical
# Details: not given
# Method in brief: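 PI3Kγ (150 nM) reaction run 120 min at room temperature with phosphatidylinositol substrate (10 μg/mL) and ATP (1 μM) in Tris pH 7.5 buffer containing MgCl2, NaCl, CHAPS and DTT. Remaining ATP detected by Kinase-Glo luminescence; 8 concentrations per compound, IC50 from 4-parameter curve fitting.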
# T2 sequence (P48736 144-1102 limits assumed): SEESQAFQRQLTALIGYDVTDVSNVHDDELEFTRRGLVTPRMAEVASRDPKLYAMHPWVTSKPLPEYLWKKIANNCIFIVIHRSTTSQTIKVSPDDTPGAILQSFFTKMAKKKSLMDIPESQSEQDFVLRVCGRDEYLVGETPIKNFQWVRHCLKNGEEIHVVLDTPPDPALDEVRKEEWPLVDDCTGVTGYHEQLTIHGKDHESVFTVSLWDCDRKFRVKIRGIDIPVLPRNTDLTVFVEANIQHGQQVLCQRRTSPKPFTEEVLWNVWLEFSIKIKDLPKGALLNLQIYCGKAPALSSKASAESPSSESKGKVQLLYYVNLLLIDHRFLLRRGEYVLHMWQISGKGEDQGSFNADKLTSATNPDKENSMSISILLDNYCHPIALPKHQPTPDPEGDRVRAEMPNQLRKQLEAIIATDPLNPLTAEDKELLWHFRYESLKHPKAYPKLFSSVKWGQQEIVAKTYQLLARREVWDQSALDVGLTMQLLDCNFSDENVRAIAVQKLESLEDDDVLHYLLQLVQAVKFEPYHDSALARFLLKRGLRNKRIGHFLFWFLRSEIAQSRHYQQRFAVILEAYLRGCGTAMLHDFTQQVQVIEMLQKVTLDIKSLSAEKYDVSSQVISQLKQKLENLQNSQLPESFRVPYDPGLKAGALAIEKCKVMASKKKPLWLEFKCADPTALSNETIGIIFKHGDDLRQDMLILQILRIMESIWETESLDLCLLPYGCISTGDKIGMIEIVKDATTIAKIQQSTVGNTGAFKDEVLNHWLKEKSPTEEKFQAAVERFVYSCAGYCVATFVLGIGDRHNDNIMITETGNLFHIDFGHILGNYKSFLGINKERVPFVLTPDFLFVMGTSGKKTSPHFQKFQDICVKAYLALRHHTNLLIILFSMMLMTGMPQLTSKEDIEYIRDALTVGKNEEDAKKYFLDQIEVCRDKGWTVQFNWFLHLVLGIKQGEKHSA
row,IC50 [nM],Compound
1,142,"Cc1nn(C)cc1-n1c(=S)n(C)c2cnc3ccc(-c4cccnc4)cc3c21 [Example 128.1, 1-(1,3-Dimethyl-1H-pyrazol-4-yl)-3-methyl-8-pyridin-3-yl-1,3-dihydro-imidazo[4,5-c]quinoline-2-thione]"
2,701,"Cc1nn(C)cc1-n1c(=O)n(C)c2cnc3ccc(-c4cccc(NS(C)(=O)=O)c4)cc3c21 [Example 47, N-{3-[1-(1,3-dimethyl-1H-pyrazol-4-yl)-3-methyl-2-oxo-2,3-dihydro-1H-imidazo[4,5-c]quinolin-8-yl]-phenyl}-methanesulfonamide]"
3,117,"COc1ccc(-c2ccc3ncc4c(c3c2)n(-c2cn(C)nc2C)c(=S)n4C)cc1OC [Example 128.2, 8-(3,4-Dimethoxy-phenyl)-1-(1,3-dimethyl-1H-pyrazol-4-yl)-3-methyl-1,3-dihydro-imidazo[4,5-c]quinoline-2-thione]"
